Where two headings read alike, the source gives them in different places.
Tested on: wild‐type BCG cells
Type: cell-based, M. bovis BCG
Settings: for Mean_Ratio (GDI5755_3d vs DMSO_3d): down-regulated, 3 d; for Mean Ratio: GDI5755_2d vs DMSO_2d; for Mean Ratio / Mean Ratio (GDI5755_2d vs DMSO_2d): up-regulated; for Mean Ratio (GDI5755_2d vs DMSO_2d): 2d

Structure (SMILES): O=C(Oc1ccc(Cl)cc1)c1ccc(N2CCOCC2)c([N+](=O)[O-])c1 [GDI‐5755]
- Mean_Ratio (GDI5755_3d vs DMSO_3d) (protein A0A0H3MBJ1, BCG_2011c (Rv1994c), HTH-type transcriptional regulator CmtR): 0.738
- Mean Ratio (protein A0A0H3MBK5 Phosphate-binding protein PstS3): 1.29
- Mean Ratio (protein A0A0H3MBM4 NAD(P)H nitroreductase acg): 1.30
- Mean Ratio (protein A0A0H3MBN2 Nuclear transport factor 2 domain-containing protein): 1.27
- Mean Ratio (protein A0A0H3MBN6 Amidohydrolase 3 domain-containing protein): 1.27
- Mean Ratio (GDI5755_2d vs DMSO_2d) (protein A0A0H3MBR5 Probable acetyl-/propionyl-coa carboxylase (Beta subunit) accD2): 1.32
- Mean Ratio (protein A0A0H3MBT4 Probable conserved lipoprotein LppL): 1.32
- Mean Ratio (protein A0A0H3MBZ9 Probable conserved transmembrane protein alanine and leucine rich): 1.27
- Mean_Ratio (GDI5755_3d vs DMSO_3d) (protein A0A0H3MC34, BCG_2260 (Rv2243), Malonyl CoA-acyl carrier protein transacylase fabD): 0.7
- Mean_Ratio (GDI5755_3d vs DMSO_3d) (protein A0A0H3MC70, BCG_1203c (Rv1141c), Probable enoyl-CoA hydratase echA11): 0.7
- Mean_Ratio (GDI5755_3d vs DMSO_3d) (protein A0A0H3MC82, BCG_2311 (Rv2295), CbrC family protein): 0.745
- Mean_Ratio (GDI5755_3d vs DMSO_3d) (protein A0A0H3MC88, BCG_2317 (Rv2301), Cutinase): 0.7
- Mean Ratio (protein A0A0H3MCA1 Alpha/beta hydrolase): 1.25
- Mean_Ratio (GDI5755_3d vs DMSO_3d) (protein A0A0H3MCB3, BCG_1267 (Rv1207), Dihydropteroate synthase): 0.7
- Mean Ratio (protein A0A0H3MCC0 Probable tetronasin-transport atp-binding protein ABC transporter): 1.26
- Mean Ratio (protein A0A0H3MCD2 Transmembrane ATP-binding protein ABC transporter): 1.25
- Mean_Ratio (GDI5755_3d vs DMSO_3d) (protein A0A0H3MCL1, BCG_1383 (Rv1322), ATP/GTP-binding protein): 0.7
- Mean_Ratio (GDI5755_3d vs DMSO_3d) (protein A0A0H3MCL6, BCG_2443c, AAA+ ATPase domain-containing protein): 0.751
- Mean Ratio (protein A0A0H3MD23 Possible exported conserved protein): 1.30
- Mean_Ratio (GDI5755_3d vs DMSO_3d) (protein A0A0H3MDI1, BCG_3731c (Rv1665), Possible chalcone synthase pks11): 0.7
- Mean_Ratio (GDI5755_3d vs DMSO_3d) (protein A0A0H3MDQ0, BCG_2970c (Rv2949c), Chorismate pyruvate-lyase): 0.746
- Mean_Ratio (GDI5755_3d vs DMSO_3d) (protein A0A0H3MDQ9, BCG_2994c (Rv2972c), Possible conserved membrane or exported protein): 0.756
- Mean Ratio (GDI5755_2d vs DMSO_2d) (protein A0A0H3MDS7 Probable conserved lipoprotein lppZ): 1.35
- Mean Ratio (protein A0A0H3ME30 Possible oxidoreductase): 1.30
- Mean_Ratio (GDI5755_3d vs DMSO_3d) (protein A0A0H3ME93, BCG_1959 (Rv1920), Probable membrane protein): 0.752
- Mean Ratio (protein A0A0H3MEA5 methanethiol S-methyltransferase): 1.26
- Mean Ratio (protein A0A0H3MEB3 HNH nuclease domain-containing protein): 1.25
- Mean_Ratio (GDI5755_3d vs DMSO_3d) (protein A0A0H3MEK1, BCG_3412 (Rv3342), Possible methyltransferase (Methylase)): 0.7
- Mean_Ratio (GDI5755_3d vs DMSO_3d) (protein A0A0H3MER9, BCG_3475c (Rv3405c), HTH-type transcriptional repressor): 0.758
- Mean_Ratio (GDI5755_3d vs DMSO_3d) (protein A0A0H3MEW3, BCG_3538c (Rv3473c), Possible peroxidase bpoA): 0.749
- Mean Ratio (GDI5755_2d vs DMSO_2d) (protein A0A0H3MF17 Serine protease Hip1): 1.35
- Mean Ratio (protein A0A0H3MF23 Possible CoA-transferase (Beta subunit)): 1.25
- Mean Ratio (protein A0A0H3MF38 Glycerol-3-phosphate dehydrogenase): 1.31
- Mean_Ratio (GDI5755_3d vs DMSO_3d) (protein A0A0H3MF62, BCG_2297c (Rv2282c), Probable transcription regulator (LysR family)): 0.737
- Mean_Ratio (GDI5755_3d vs DMSO_3d) (protein A0A0H3MFB8, BCG_3726c, Protease): 0.739
- Mean Ratio (protein A0A0H3MFJ3 Transcriptional regulatory protein (Probably arsR-family)): 1.25
- Mean Ratio (GDI5755_2d vs DMSO_2d) (protein A0A0H3MFK9 DSBA-like thioredoxin domain-containing protein): 1.33
- Mean Ratio (GDI5755_2d vs DMSO_2d) (protein A0A0H3MFL5 histidine kinase): 1.35
- Mean Ratio (protein A0A0H3MFN8 Probable O-antigen/lipopolysaccharide transport integral membrane protein ABC transporter rfbD): 1.29
- Mean_Ratio (GDI5755_3d vs DMSO_3d) (protein A0A0H3MFR0, BCG_2539c (Rv2518c), L,D-transpeptidase 2, ldtB/L,D-transpeptidase LdtMt2): 0.7
- Mean Ratio (protein A0A0H3MFS0 Acyltransferase): 1.28
- Mean Ratio (protein A0A0H3MFX4 Protein translocase subunit SecD): 1.31
- Mean_Ratio (GDI5755_3d vs DMSO_3d) (protein A0A0H3MG15, BCG_2663 (Rv2636), O-phosphotransferase): 0.7
- Mean Ratio (protein A0A0H3MG43 Probable antibiotic-transport ATP-binding protein ABC transporter): 1.28
- Mean Ratio (protein A0A0H3MG65 Probable conserved transmembrane protein): 1.25
- Mean Ratio (protein A0A0H3MG92 Conserved 35 kDa alanine rich protein): 1.27
- Mean Ratio (protein A0A0H3MGD9 Metal-dependent hydrolase): 1.32
- Mean_Ratio (GDI5755_3d vs DMSO_3d) (protein A0A0H3MGM3, BCG_2905 (Rv2884), Probable transcriptional regulatory protein): 0.744
- Mean Ratio (protein A0A0H3MGP1 Probable transcriptional regulatory protein (Probably tetR-family)): 1.30
- Mean Ratio (protein A0A0H3MGS1 Probable integral membrane protein): 1.30
- Mean_Ratio (GDI5755_3d vs DMSO_3d) (protein A0A0H3MGU7, BCG_3025c (Rv3003c), Acetolactate synthase): 0.7
- Mean Ratio (protein A0A0H3MH35 Hydroxylase): 1.30
- Mean_Ratio (GDI5755_3d vs DMSO_3d) (protein A0A0H3MH58, BCG_3141 (Rv3116), PRobable molybdenum cofactor biosynthesis protein moeB2): 0.7
- Mean_Ratio (GDI5755_3d vs DMSO_3d) (protein A0A0H3MH84, BCG_3167c (Rv3144c), PPE family protein): 0.7
- Mean_Ratio (GDI5755_3d vs DMSO_3d) (protein A0A0H3MHH8, BCG_3287c (Rv3258c), DUF3499 domain-containing protein): 0.757
- Mean Ratio (GDI5755_2d vs DMSO_2d) (protein A0A0H3MHJ0 Probable metal cation-transporting P-type atpase C ctpC): 1.38
- Mean_Ratio (GDI5755_3d vs DMSO_3d) (protein A0A0H3MIJ3, BCG_3667c (Rv3603c), Conserved hypothetical alanine and leucine rich protein): 0.7
- Mean Ratio (protein A0A0H3MJ41 Uncharacterized protein): 1.29
- Mean_Ratio (GDI5755_3d vs DMSO_3d) (protein A1KF76, BCG_0293c (Rv0255c), Cobyric acid synthase): 0.7
- Mean Ratio (protein A1KFU9 Heparin-binding hemagglutinin): 1.29
- Mean_Ratio (GDI5755_3d vs DMSO_3d) (protein A1KGJ8, BCG_0767 (Rv0717), Small ribosomal subunit protein uS14B): 0.746
- Mean Ratio (protein A1KHB8 Signal transduction histidine-protein kinase/phosphatase MprB): 1.30
- Mean_Ratio (GDI5755_3d vs DMSO_3d) (protein A1KHH0, BCG_1089 (Rv1031), Potassium-transporting ATPase KdpC subunit): 0.7
- Mean Ratio (protein A1KI12 Sec-independent protein translocase protein TatB): 1.27
- Mean_Ratio (GDI5755_3d vs DMSO_3d) (protein A1KI86, BCG_1358 (Rv1298), Large ribosomal subunit protein bL31): 0.7
